The values below are quoted from earlier work in article PMC9884426, “A phase 1 clinical trial of the repurposable acetyllysine mimetic, n-methyl-2-pyrrolidone (NMP), in relapsed or refractory multiple myeloma” (Clinical Epigenetics, 2023).

Molecules are shown by their SMILES.

Details of the data set: method as in PMID 9029058. The note with it: human, cited from earlier work; for elimination half-life: NMP metabolites; for amount found in urine: after a single 100 mg oral dose of NMP.

Regarding `CN1C(=O)CCC1=O` [MSI, N-methylsuccinimide], the elimination half-life is given as 8 h and the “amount found in urine” value is 0.4%. On to `CN1C(=O)CCC1O` (centres unmarked) [5-HNMP, 5-hydroxy-N-methyl-2-pyrrolidone], for which the “amount found in urine” value is recorded as 44%.

Consider `CN1C(=O)CC(O)C1=O` (centres unmarked) [2-HMSI, 2-hydroxy-N-methylsuccinimide], for which the elimination half-life is on record as 17 h and the “amount found in urine” value was 20%.
